# Measured values reported in ChEMBL document CHEMBL1201861, “Genomics of Drug Sensitity in Cancer screening data, Wellcome Trust Sanger Institute”.
# pIC50: −log10 of the molar value.
# How the values were obtained:
# Assay in all cases: cells
# [1] = tested on: ES3; format: functional, cell-based, Homo sapiens; settings: Homo sapiens, ES3;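 note: growth inhibition of ES3 cells, read out with a cell viability assay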
# Description: SANGER: Inhibition of human ES3 cell growth in a cell viability assay.
# [2] = tested on: GMS-10; format: functional, cell-based, Homo sapiens; settings: Homo sapiens, GMS-10;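 note: growth inhibition of GMS-10 cells, read out as cell viability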
# Description: SANGER: Inhibition of human GMS-10 cell growth in a cell viability assay.
# [3] = tested on: HEL; format: functional, cell-based, Homo sapiens; settings: Homo sapiens, HEL;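 note: growth inhibition of HEL cells, read out with a cell viability assay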
# Description: SANGER: Inhibition of human HEL cell growth in a cell viability assay.
# [4] = tested on: KYSE-410; format: functional, cell-based, Homo sapiens; settings: Homo sapiens, KYSE-410;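 note: growth inhibition of KYSE-410 cells, measured through a cell viability readout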
# Description: SANGER: Inhibition of human KYSE-410 cell growth in a cell viability assay.
# [5] = tested on: HuO-3N1; format: functional, cell-based, Homo sapiens; settings: Homo sapiens, HuO-3N1;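 note: cell viability readout used to measure how strongly compounds suppress proliferation of human HuO-3N1 cells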
# Description: SANGER: Inhibition of human HuO-3N1 cell growth in a cell viability assay.
# [6] = tested on: NCI-H1651; format: functional, cell-based, Homo sapiens; settings: Homo sapiens, NCI-H1651;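 note: Read-out is a cell viability assay, with IC50 expressing inhibition of NCI-H1651 cell growth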
# Description: SANGER: Inhibition of human NCI-H1651 cell growth in a cell viability assay.
# [7] = tested on: M059J; format: functional, cell-based, Homo sapiens; settings: Homo sapiens, M059J;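 note: growth inhibition of M059J cells, read out with a cell viability assay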
# Description: SANGER: Inhibition of human M059J cell growth in a cell viability assay.
# [8] = tested on: BCPAP; format: functional, cell-based, Homo sapiens; settings: Homo sapiens, BCPAP;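 note: growth inhibition of BCPAP cells, read out in a cell viability assay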
# Description: SANGER: Inhibition of human BCPAP cell growth in a cell viability assay.
# [9] = tested on: NMC-G1; format: functional, cell-based, Homo sapiens; settings: Homo sapiens, NMC-G1;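 note: growth inhibition of the NMC-G1 cell line, measured with a cell viability read-out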
# Description: SANGER: Inhibition of human NMC-G1 cell growth in a cell viability assay.
# [10] = tested on: MDA-MB-175-VII; format: functional, cell-based, Homo sapiens; settings: Homo sapiens, MDA-MB-175-VII
# [11] = tested on: GP5d; format: functional, cell-based, Homo sapiens; settings: Homo sapiens, GP5d;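 note: growth inhibition of human GP5d cells, read out with a cell viability assay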
# Description: SANGER: Inhibition of human GP5d cell growth in a cell viability assay.
# [12] = tested on: MZ7-mel; format: functional, cell-based, Homo sapiens; settings: Homo sapiens, MZ7-mel;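 note: growth inhibition of human MZ7-mel cells, measured by a cell viability assay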
# Description: SANGER: Inhibition of human MZ7-mel cell growth in a cell viability assay.
# [13] = tested on: NCI-H1437; format: functional, cell-based, Homo sapiens; settings: Homo sapiens, NCI-H1437;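 note: growth inhibition of human NCI-H1437 cells, read out by a cell viability assay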
# Description: SANGER: Inhibition of human NCI-H1437 cell growth in a cell viability assay.
# [14] = tested on: NCI-H1792; format: functional, cell-based, Homo sapiens; settings: Homo sapiens, NCI-H1792;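 note: growth inhibition of human NCI-H1792 cells, read out as cell viability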
# Description: SANGER: Inhibition of human NCI-H1792 cell growth in a cell viability assay.
# [15] = tested on: SK-MEL3; format: functional, cell-based, Homo sapiens, SK-MEL-3; settings: Homo sapiens, SK-MEL3;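 note: growth inhibition of human SK-MEL-3 cells, read out with a cell viability assay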
# Description: SANGER: Inhibition of human SK-MEL-3 cell growth in a cell viability assay.
# [16] = tested on: NB5; format: functional, cell-based, Homo sapiens; settings: Homo sapiens, NB5;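 note: growth inhibition of NB5 cells, read out as cell viability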
# Description: SANGER: Inhibition of human NB5 cell growth in a cell viability assay.
# [17] = tested on: MCF7; format: functional, cell-based, Homo sapiens; settings: Homo sapiens, MCF7;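 note: growth inhibition of human MCF7 cells, read out with a cell viability assay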
# Description: SANGER: Inhibition of human MCF7 cell growth in a cell viability assay.
# [18] = tested on: HDLM-2; format: functional, cell-based; settings: Homo sapiens;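 note: cell viability assay measuring suppression of HDLM-2 proliferation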
# Description: SANGER: Inhibition of human HDLM-2 cell growth in a cell viability assay.
# [19] = tested on: LCLC-97TM1; format: functional, cell-based, Homo sapiens; settings: Homo sapiens, LCLC-97TM1;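 note: cell viability assay measuring growth inhibition of human LCLC-97TM1 cells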
# Description: SANGER: Inhibition of human LCLC-97TM1 cell growth in a cell viability assay.
# [20] = tested on: MHH-PREB-1; format: functional, cell-based; settings: Homo sapiens;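 note: cell viability assay measuring inhibition of proliferation of human MHH-PREB-1 cells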
# Description: SANGER: Inhibition of human MHH-PREB-1 cell growth in a cell viability assay.
# [21] = tested on: GI-ME-N; format: functional, cell-based, Homo sapiens; settings: Homo sapiens, GI-ME-N;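 note: growth inhibition of human GI-ME-N cells, read out with a cell viability assay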
# Description: SANGER: Inhibition of human GI-ME-N cell growth in a cell viability assay.
# [22] = tested on: 697; format: functional, cell-based; settings: Homo sapiens
# Description: SANGER: Inhibition of human 697 cell growth in a cell viability assay.
# [23] = tested on: KYSE-450; format: functional, cell-based; settings: Homo sapiens;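 note: cell growth inhibition measured by a viability assay in human KYSE-450 cells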
# Description: SANGER: Inhibition of human KYSE-450 cell growth in a cell viability assay.
# [24] = tested on: ONS-76; format: functional, cell-based, Homo sapiens; settings: Homo sapiens, ONS-76;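 note: growth inhibition of human ONS-76 cells, read out with a cell viability assay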
# Description: SANGER: Inhibition of human ONS-76 cell growth in a cell viability assay.
# [25] = tested on: EW-18; format: functional, cell-based; settings: Homo sapiens;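 note: growth inhibition of EW-18 cells, read out by a cell viability assay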
# Description: SANGER: Inhibition of human EW-18 cell growth in a cell viability assay.
# [26] = tested on: HCC1806; format: functional, cell-based, Homo sapiens; settings: Homo sapiens, HCC1806;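 note: growth inhibition of the cancer cell line, determined with a cell viability assay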
# Description: SANGER: Inhibition of human HCC1806 cell growth in a cell viability assay.
# [27] = tested on: SW756; format: functional, cell-based, Homo sapiens; settings: Homo sapiens, SW756;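 note: growth inhibition of human SW756 cells, read out with a cell viability assay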
# Description: SANGER: Inhibition of human SW756 cell growth in a cell viability assay.
# [28] = tested on: SK-N-DZ; format: functional, cell-based, Homo sapiens; settings: Homo sapiens, SK-N-DZ;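 note: growth inhibition of the cancer cell line, read out through a viability assay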
# Description: SANGER: Inhibition of human SK-N-DZ cell growth in a cell viability assay.
# [29] = tested on: VMRC-RCZ; format: functional, cell-based; settings: Homo sapiens;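 note: growth inhibition measured with a cell viability assay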
# Description: SANGER: Inhibition of human VMRC-RCZ cell growth in a cell viability assay.
# [30] = tested on: BHY; format: functional, cell-based, Homo sapiens; settings: Homo sapiens, BHY;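 note: cell growth inhibition read out by a viability assay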
# Description: SANGER: Inhibition of human BHY cell growth in a cell viability assay.
# [31] = tested on: DSH1; format: functional, cell-based, Homo sapiens; settings: Homo sapiens, DSH1;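 note: growth inhibition of human DSH1 cells, measured with a cell viability readout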
# Description: SANGER: Inhibition of human DSH1 cell growth in a cell viability assay.
# [32] = tested on: MFM-223; format: functional, cell-based, Homo sapiens; settings: Homo sapiens, MFM-223
# Description: SANGER: Inhibition of human MFM-223 cell growth in a cell viability assay.
# [33] = tested on: GOTO; format: functional, cell-based, Homo sapiens; settings: Homo sapiens, GOTO;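 note: growth inhibition of GOTO cells, read out by a cell viability assay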
# Description: SANGER: Inhibition of human GOTO cell growth in a cell viability assay.
# [34] = tested on: COLO-800; format: functional, cell-based, Homo sapiens; settings: Homo sapiens, COLO-800;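 note: growth inhibition of COLO-800 cells, read out with a cell viability assay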
# Description: SANGER: Inhibition of human COLO-800 cell growth in a cell viability assay.
# [35] = tested on: SK-MEL-2; format: functional, cell-based, Homo sapiens; settings: Homo sapiens, SK-MEL-2;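 note: growth inhibition of human SK-MEL-2 cells measured with a cell viability assay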
# Description: SANGER: Inhibition of human SK-MEL-2 cell growth in a cell viability assay.
# [36] = tested on: Ca-Ski; format: functional, cell-based; settings: Homo sapiens;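 note: cell viability assay measuring inhibition of Ca-Ski cell growth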
# Description: SANGER: Inhibition of human Ca-Ski cell growth in a cell viability assay.
# [37] = tested on: MOLT-4; format: functional, cell-based; settings: Homo sapiens;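 note: growth inhibition of MOLT-4 cells, determined with a cell viability readout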
# Description: SANGER: Inhibition of human MOLT-4 cell growth in a cell viability assay.
# [38] = tested on: CAL-33; format: functional, cell-based, Homo sapiens; settings: Homo sapiens, CAL-33;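 note: growth inhibition of CAL-33 cells, read out with a cell viability assay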
# Description: SANGER: Inhibition of human CAL-33 cell growth in a cell viability assay.
# [39] = tested on: CAL-39; format: functional, cell-based, Homo sapiens; settings: Homo sapiens, CAL-39;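 note: cell viability assay measuring growth inhibition of CAL-39 cells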
# Description: SANGER: Inhibition of human CAL-39 cell growth in a cell viability assay.
# [40] = tested on: NCI-H1648; format: functional, cell-based, Homo sapiens; settings: Homo sapiens, NCI-H1648;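 note: cell viability assay measuring inhibition of NCI-H1648 cell growth, from the Sanger screening data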
# Description: SANGER: Inhibition of human NCI-H1648 cell growth in a cell viability assay.
# [41] = tested on: NCI-H1155; format: functional, cell-based; settings: Homo sapiens;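 note: cell growth inhibition measured by a viability assay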
# Description: SANGER: Inhibition of human NCI-H1155 cell growth in a cell viability assay.
# [42] = tested on: ASPC1; format: functional, cell-based, Homo sapiens; settings: Homo sapiens, ASPC1;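 note: growth inhibition of AsPC-1 cells, read out with a cell viability assay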
# Description: SANGER: Inhibition of human AsPC-1 cell growth in a cell viability assay.
# [43] = tested on: TE-1; format: functional, cell-based, Homo sapiens; settings: Homo sapiens, TE-1;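 note: growth inhibition of the human TE-1 cell line, read out with a cell viability assay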
# Description: SANGER: Inhibition of human TE-1 cell growth in a cell viability assay.
# [44] = tested on: TE-12; format: functional, cell-based; settings: Homo sapiens;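 note: growth inhibition of TE-12 cells, read out by a cell viability assay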
# Description: SANGER: Inhibition of human TE-12 cell growth in a cell viability assay.
# [45] = tested on: H4; format: functional, cell-based; settings: Homo sapiens
# Description: SANGER: Inhibition of human H4 cell growth in a cell viability assay.
# [46] = tested on: CCRF-CEM; format: functional, cell-based; settings: Homo sapiens;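 note: inhibition of CCRF-CEM cell growth, measured by a cell viability assay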
# Description: SANGER: Inhibition of human CCRF-CEM cell growth in a cell viability assay.
# [47] = tested on: A498; format: functional, cell-based, Homo sapiens; settings: Homo sapiens, A498;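 note: growth inhibition of human A498 cells, read out with a cell viability assay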
# Description: SANGER: Inhibition of human A498 cell growth in a cell viability assay.
# [48] = tested on: NCI-H82; format: functional, cell-based; settings: Homo sapiens;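 note: growth inhibition of NCI-H82 cells, measured with a cell viability readout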
# Description: SANGER: Inhibition of human NCI-H82 cell growth in a cell viability assay.
# [49] = tested on: CAL-54; format: functional, cell-based, Homo sapiens; settings: Homo sapiens, CAL-54;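 note: growth inhibition of CAL-54 cells, read out by a viability measurement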
# Description: SANGER: Inhibition of human CAL-54 cell growth in a cell viability assay.
# [50] = tested on: A673; format: functional, cell-based, Homo sapiens; settings: Homo sapiens, A673;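 note: growth inhibition of human A673 cells, read out through a cell viability assay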
# Description: SANGER: Inhibition of human A673 cell growth in a cell viability assay.
# [51] = tested on: HAL-01; format: functional, cell-based; settings: Homo sapiens;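 note: growth inhibition of human HAL-01 cells, read out with a cell viability assay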
# Description: SANGER: Inhibition of human HAL-01 cell growth in a cell viability assay.
structure (smiles),measurement,setting,value
COc1ccc(C2=N[C@@H](c3ccc(Cl)cc3)[C@@H](c3ccc(Cl)cc3)N2C(=O)N2CCNC(=O)C2)c(OC(C)C)c1 [NUTLIN-3],pIC50,[1],< 5.10
same,pIC50,[2],< 5.10
same,pIC50,[3],< 5.10
same,pIC50,[4],< 5.10
same,pIC50,[5],< 5.10
same,pIC50,[6],< 5.10
same,pIC50,[7],< 5.10
same,pIC50,[8],< 5.10
same,pIC50,[9],< 5.10
same,pIC50,[10],< 5.10
same,pIC50,[11],< 5.10
same,pIC50,[12],< 5.10
same,pIC50,[13],< 5.10
same,pIC50,[14],< 5.10
same,pIC50,[15],< 5.10
same,pIC50,[16],5.18
same,pIC50,[17],5.26
same,pIC50,[18],< 5.10
same,pIC50,[19],< 5.10
same,pIC50,[20],< 5.10
same,pIC50,[21],5.21
same,pIC50,[22],5.26
same,pIC50,[23],< 5.10
same,pIC50,[24],5.25
same,pIC50,[25],< 5.10
same,pIC50,[26],< 5.10
same,pIC50,[27],< 5.10
same,pIC50,[28],< 5.10
same,pIC50,[29],< 5.10
same,pIC50,[30],< 5.10
same,pIC50,[31],< 5.10
same,pIC50,[32],< 5.10
same,pIC50,[33],5.42
same,pIC50,[34],< 5.10
same,pIC50,[35],< 5.10
same,pIC50,[36],< 5.10
same,pIC50,[37],5.63
same,pIC50,[38],< 5.10
same,pIC50,[39],< 5.10
same,pIC50,[40],< 5.10
same,pIC50,[41],< 5.10
same,pIC50,[42],< 5.10
same,pIC50,[43],< 5.10
same,pIC50,[44],< 5.10
same,pIC50,[45],6.18
same,pIC50,[46],< 5.10
same,pIC50,[47],< 5.10
same,pIC50,[48],< 5.10
same,pIC50,[49],5.34
same,pIC50,[50],< 5.10
same,pIC50,[51],< 5.10
C=CCNC1=C2C[C@@H](C)C[C@H](OC)[C@H](O)[C@@H](C)/C=C(\C)[C@H](OC(N)=O)[C@@H](OC)/C=C\C=C(/C)C(=O)NC(=CC1=O)C2=O [TANESPIMYCIN],pIC50,[1],6.23
same,pIC50,[2],7.17
same,pIC50,[3],< 6.00
same,pIC50,[4],7.32
same,pIC50,[5],7.28
same,pIC50,[6],6.15
same,pIC50,[7],7.04
same,pIC50,[8],6.72
same,pIC50,[9],6.53
same,pIC50,[10],7.47
same,pIC50,[11],6.85
same,pIC50,[12],6.75
same,pIC50,[13],6.92
same,pIC50,[14],7.02
same,pIC50,[15],6.09
same,pIC50,[16],< 6.00
same,pIC50,[17],7.01
same,pIC50,[18],< 6.00
same,pIC50,[19],7.06
same,pIC50,[20],< 6.00
same,pIC50,[21],6.11
same,pIC50,[22],< 6.00
same,pIC50,[23],6.01
same,pIC50,[24],< 6.00
same,pIC50,[25],6.41
same,pIC50,[26],7.15
same,pIC50,[27],6.35
same,pIC50,[28],< 6.00
same,pIC50,[29],6.86
same,pIC50,[30],6.63
same,pIC50,[31],7.42
same,pIC50,[32],6.58
same,pIC50,[33],6.35
same,pIC50,[34],6.59
same,pIC50,[35],7.04
same,pIC50,[36],6.57
same,pIC50,[37],< 6.00
same,pIC50,[38],< 6.00
same,pIC50,[39],7.11
same,pIC50,[40],6.82
same,pIC50,[41],6.58
same,pIC50,[42],6.82
same,pIC50,[43],7.04
same,pIC50,[44],< 6.00
same,pIC50,[45],7.51
same,pIC50,[46],< 6.00
same,pIC50,[47],6.99
same,pIC50,[48],< 6.00
same,pIC50,[49],< 6.00
same,pIC50,[50],< 6.00
same,pIC50,[51],< 6.00
